Data: patent US20150125889A1, “IN VITRO DETECTION OF MICROORGANISMS WITH AZOREDUCTASE ACTIVITY” (BIOMÉRIEUX, priority 2012, published 2015)

What was measured:
Assay in all cases: Reduction of azo substrates over 24 hours at 35° C., microtitration plate (Example 1)
Format in all cases: cell-based
Pseudomonas aeruginosa = system: Pseudomonas aeruginosa; set-up: key to RED (substrate reduced or not): RED indicates whether the substrate is reduced (Y) or not (N); RED indicates whether the substrate is reduced (Y) or not (N); key to Co (growth, absorbance at 660 nm) / Decol (substrate decolourized, decrease in absorbance) / Fluo (fluorescence multiplied by 2 relative to substrate-free control): The symbol “+” means good growth/decolourization/significant increase in fluorescence; The symbol “+/−” means difficult growth; The symbol “−” means that there is no growth/decolourization/significant increase in fluorescence; conditions: P. aeruginosa, substrate 35 mg/l
Outline: (§1)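 Each species is represented by a single strain inoculated at 0.5 McFarland into Trypcase soya broth with substrate at 35 mg/l. Plates are read continuously at 35° C. over 24 hours. A substrate counts as reduced when absorbance falls or fluorescence doubles relative to a substrate-free control.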

Candida albicans = system: Candida albicans; set-up: key to RED (substrate reduced or not): RED indicates whether the substrate is reduced (Y) or not (N); RED indicates whether the substrate is reduced (Y) or not (N); key to Co (growth, absorbance at 660 nm) / Decol (substrate decolourized, decrease in absorbance) / Fluo (fluorescence multiplied by 2 relative to substrate-free control): The symbol “+” means good growth/decolourization/significant increase in fluorescence; The symbol “+/−” means difficult growth; The symbol “−” means that there is no growth/decolourization/significant increase in fluorescence; conditions: substrate 35 mg/l
Outline: as §1

Cronobacter muytjensii = system: Cronobacter muytjensii; set-up: key to RED (substrate reduced or not): RED indicates whether the substrate is reduced (Y) or not (N); RED indicates whether the substrate is reduced (Y) or not (N); key to Co (growth, absorbance at 660 nm) / Decol (substrate decolourized, decrease in absorbance) / Fluo (fluorescence multiplied by 2 relative to substrate-free control): The symbol “+” means good growth/decolourization/significant increase in fluorescence; The symbol “+/−” means difficult growth; The symbol “−” means that there is no growth/decolourization/significant increase in fluorescence; conditions: E. muytjensii, substrate 35 mg/l
Outline: as §1

Escherichia coli = system: Escherichia coli; set-up: key to RED (substrate reduced or not): RED indicates whether the substrate is reduced (Y) or not (N); RED indicates whether the substrate is reduced (Y) or not (N); key to Co (growth, absorbance at 660 nm) / Decol (substrate decolourized, decrease in absorbance) / Fluo (fluorescence multiplied by 2 relative to substrate-free control): The symbol “+” means good growth/decolourization/significant increase in fluorescence; The symbol “+/−” means difficult growth; The symbol “−” means that there is no growth/decolourization/significant increase in fluorescence; conditions: E. coli, substrate 35 mg/l
Outline: as §1

Staphylococcus aureus = system: Staphylococcus aureus; set-up: key to RED (substrate reduced or not): RED indicates whether the substrate is reduced (Y) or not (N); RED indicates whether the substrate is reduced (Y) or not (N); key to Co (growth, absorbance at 660 nm) / Decol (substrate decolourized, decrease in absorbance) / Fluo (fluorescence multiplied by 2 relative to substrate-free control): The symbol “+” means good growth/decolourization/significant increase in fluorescence; The symbol “+/−” means difficult growth; The symbol “−” means that there is no growth/decolourization/significant increase in fluorescence; conditions: S. aureus, substrate 35 mg/l
Outline: as §1

Kocuria rosea = system: Kocuria rosea; set-up: key to RED (substrate reduced or not): RED indicates whether the substrate is reduced (Y) or not (N); RED indicates whether the substrate is reduced (Y) or not (N); key to Co (growth, absorbance at 660 nm) / Decol (substrate decolourized, decrease in absorbance) / Fluo (fluorescence multiplied by 2 relative to substrate-free control): The symbol “+” means good growth/decolourization/significant increase in fluorescence; The symbol “+/−” means difficult growth; The symbol “−” means that there is no growth/decolourization/significant increase in fluorescence; conditions: K. rosea, substrate 35 mg/l
Outline: as §1

Geotrichum candidum = system: Geotrichum candidum; set-up: key to RED (substrate reduced or not): RED indicates whether the substrate is reduced (Y) or not (N); RED indicates whether the substrate is reduced (Y) or not (N); key to Co (growth, absorbance at 660 nm) / Decol (substrate decolourized, decrease in absorbance) / Fluo (fluorescence multiplied by 2 relative to substrate-free control): The symbol “+” means good growth/decolourization/significant increase in fluorescence; The symbol “+/−” means difficult growth; The symbol “−” means that there is no growth/decolourization/significant increase in fluorescence; conditions: G. candidum, substrate 35 mg/l
Outline: as §1

[1] = system: Staphylococcus epidermidis; set-up: key to RED (substrate reduced or not): RED indicates whether the substrate is reduced (Y) or not (N); RED indicates whether the substrate is reduced (Y) or not (N); key to Co (growth, absorbance at 660 nm) / Decol (substrate decolourized, decrease in absorbance) / Fluo (fluorescence multiplied by 2 relative to substrate-free control): The symbol “+” means good growth/decolourization/significant increase in fluorescence; The symbol “+/−” means difficult growth; The symbol “−” means that there is no growth/decolourization/significant increase in fluorescence; conditions: S. epidermidis, substrate 35 mg/l
Outline: as §1

Acinetobacter baumanii = system: Acinetobacter baumanii; set-up: key to RED (substrate reduced or not): RED indicates whether the substrate is reduced (Y) or not (N); RED indicates whether the substrate is reduced (Y) or not (N); key to Decol (substrate decolourized, decrease in absorbance) / Fluo (fluorescence multiplied by 2 relative to substrate-free control) / Co (growth, absorbance at 660 nm): The symbol “+” means good growth/decolourization/significant increase in fluorescence; The symbol “+/−” means difficult growth; The symbol “−” means that there is no growth/decolourization/significant increase in fluorescence; conditions: A. baumannii, substrate 35 mg/l
Outline: as §1

Enterococcus faecalis = system: Enterococcus faecalis; set-up: key to RED (substrate reduced or not): RED indicates whether the substrate is reduced (Y) or not (N); RED indicates whether the substrate is reduced (Y) or not (N); key to Decol (substrate decolourized, decrease in absorbance) / Fluo (fluorescence multiplied by 2 relative to substrate-free control) / Co (growth, absorbance at 660 nm): The symbol “+” means good growth/decolourization/significant increase in fluorescence; The symbol “+/−” means difficult growth; The symbol “−” means that there is no growth/decolourization/significant increase in fluorescence; conditions: E. faecalis, substrate 35 mg/l
Outline: as §1

| SMILES | Co (growth, absorbance at 660 nm) (Pseudomonas aeruginosa) | Decol (substrate decolourized, decrease in absorbance) (Pseudomonas aeruginosa) | Fluo (fluorescence multiplied by 2 relative to substrate-free control) (Pseudomonas aeruginosa) | RED (substrate reduced or not) (Pseudomonas aeruginosa) | Co (growth, absorbance at 660 nm) (Candida albicans) | Decol (substrate decolourized, decrease in absorbance) (Candida albicans) | Fluo (fluorescence multiplied by 2 relative to substrate-free control) (Candida albicans) | RED (substrate reduced or not) (Candida albicans) | Co (growth, absorbance at 660 nm) (Cronobacter muytjensii) | Decol (substrate decolourized, decrease in absorbance) (Cronobacter muytjensii) | Fluo (fluorescence multiplied by 2 relative to substrate-free control) (Cronobacter muytjensii) | RED (substrate reduced or not) (Cronobacter muytjensii) | Co (growth, absorbance at 660 nm) (Escherichia coli) | Decol (substrate decolourized, decrease in absorbance) (Escherichia coli) | Fluo (fluorescence multiplied by 2 relative to substrate-free control) (Escherichia coli) | RED (substrate reduced or not) (Escherichia coli) | Co (growth, absorbance at 660 nm) (Staphylococcus aureus) | Decol (substrate decolourized, decrease in absorbance) (Staphylococcus aureus) | Fluo (fluorescence multiplied by 2 relative to substrate-free control) (Staphylococcus aureus) | RED (substrate reduced or not) (Staphylococcus aureus) | other results |
| --- | --- | --- | --- | --- | --- | --- | --- | --- | --- | --- | --- | --- | --- | --- | --- | --- | --- | --- | --- | --- | --- |
| O=S(=O)([O-])c1ccc(/N=N/c2ccc(O)c3ccccc23)cc1.[Na+] [Orange I] | + | − | − | N | + | − | − | N | + | + | − | Y | + | + | − | Y | + | + | − | Y | Co (growth, absorbance at 660 nm) (Kocuria rosea): −; Decol (substrate decolourized, decrease in absorbance) (Kocuria rosea): −; Fluo (fluorescence multiplied by 2 relative to substrate-free control) (Kocuria rosea): −; Co (growth, absorbance at 660 nm) (Geotrichum candidum): +/−; Decol (substrate decolourized, decrease in absorbance) (Geotrichum candidum): −; Fluo (fluorescence multiplied by 2 relative to substrate-free control) (Geotrichum candidum): −; RED (substrate reduced or not) (Geotrichum candidum): N; Co (growth, absorbance at 660 nm) [1]: +; Decol (substrate decolourized, decrease in absorbance) [1]: +; Fluo (fluorescence multiplied by 2 relative to substrate-free control) [1]: −; RED (substrate reduced or not) [1]: Y; Co (growth, absorbance at 660 nm) (Acinetobacter baumanii): +; Decol (substrate decolourized, decrease in absorbance) (Acinetobacter baumanii): +/−; Fluo (fluorescence multiplied by 2 relative to substrate-free control) (Acinetobacter baumanii): −; RED (substrate reduced or not) (Acinetobacter baumanii): Y; Co (growth, absorbance at 660 nm) (Enterococcus faecalis): +; Decol (substrate decolourized, decrease in absorbance) (Enterococcus faecalis): +; Fluo (fluorescence multiplied by 2 relative to substrate-free control) (Enterococcus faecalis): −; RED (substrate reduced or not) (Enterococcus faecalis): Y |
| O=S(=O)([O-])c1ccc2c(N=Nc3ccccc3)c(O)c(S(=O)(=O)[O-])cc2c1.[Na+].[Na+] [Ponceau 2G] | + | − | − | N | + | − | − | N | + | − | − | N | + | − | − | N | + | − | − | N | Co (growth, absorbance at 660 nm) (Kocuria rosea): −; Decol (substrate decolourized, decrease in absorbance) (Kocuria rosea): −; Fluo (fluorescence multiplied by 2 relative to substrate-free control) (Kocuria rosea): −; Co (growth, absorbance at 660 nm) (Geotrichum candidum): +/−; Decol (substrate decolourized, decrease in absorbance) (Geotrichum candidum): −; Fluo (fluorescence multiplied by 2 relative to substrate-free control) (Geotrichum candidum): −; RED (substrate reduced or not) (Geotrichum candidum): N; Co (growth, absorbance at 660 nm) [1]: +; Decol (substrate decolourized, decrease in absorbance) [1]: −; Fluo (fluorescence multiplied by 2 relative to substrate-free control) [1]: −; RED (substrate reduced or not) [1]: N; Co (growth, absorbance at 660 nm) (Acinetobacter baumanii): +; Decol (substrate decolourized, decrease in absorbance) (Acinetobacter baumanii): −; Fluo (fluorescence multiplied by 2 relative to substrate-free control) (Acinetobacter baumanii): −; RED (substrate reduced or not) (Acinetobacter baumanii): N; Co (growth, absorbance at 660 nm) (Enterococcus faecalis): +; Decol (substrate decolourized, decrease in absorbance) (Enterococcus faecalis): +; Fluo (fluorescence multiplied by 2 relative to substrate-free control) (Enterococcus faecalis): −; RED (substrate reduced or not) (Enterococcus faecalis): Y |
